Test system: Botrytis cinerae
Assay: Fungicidal activity against Cucumber Gray Mold Rot (CGM) disease
Assay type: in vivo
Details: 0.08 ppm

Compound	Fungicidal Activities CGM (C.V.)
OC(c1ccc(Cl)cc1)(c1cncnc1)c1ccccc1Cl (centres unmarked) [FENARIMOL, reference compound]	0%

Same assay, conditions: 0.40 ppm

Compound	Fungicidal Activities CGM (C.V.)
OC(c1ccc(Cl)cc1)(c1cncnc1)c1ccccc1Cl (centres unmarked) [FENARIMOL, reference compound]	7%

Same assay, conditions: 2 ppm

Compound	Fungicidal Activities CGM (C.V.)
OC(c1ccc(Cl)cc1)(c1cncnc1)c1ccccc1Cl (centres unmarked) [FENARIMOL, reference compound]	7%

Same assay, conditions: 10 ppm

Compound	Fungicidal Activities CGM (C.V.)
OC(c1ccc(Cl)cc1)(c1cncnc1)c1ccccc1Cl (centres unmarked) [FENARIMOL, reference compound]	7%

Same assay, conditions: 50 ppm

Compound	Fungicidal Activities CGM (C.V.)
CON=C(C(=O)OC)c1ccccc1CON=C(C)c1cccc(OC(F)=C(c2ccc(Cl)cc2)C(F)(F)F)c1 [Compound 185]	0%
CON=C(C(=O)OC)c1ccccc1CON=C(C)c1cccc(OC(F)=C(c2ccc(OC)cc2)C(F)(F)F)c1 [Compound 181]	77%
COC=C(C(=O)OC)c1ccccc1CON=C(C)c1cccc(OC(F)=C(c2ccc(Br)cc2)C(F)(F)F)c1 [Compound 165]	68%

Test system: Rhizoctonia solani AG-1
Assay: Fungicidal activity against Rice Sheath Blight (RSB) disease
Details: 0.08 ppm

Compound	Fungicidal Activities RSB (C.V.)
OC(c1ccc(Cl)cc1)(c1cncnc1)c1ccccc1Cl (centres unmarked) [FENARIMOL, reference compound]	14%

Same assay, conditions: 0.40 ppm

Compound	Fungicidal Activities RSB (C.V.)
OC(c1ccc(Cl)cc1)(c1cncnc1)c1ccccc1Cl (centres unmarked) [FENARIMOL, reference compound]	30%

Same assay, conditions: 2 ppm

Compound	Fungicidal Activities RSB (C.V.)
OC(c1ccc(Cl)cc1)(c1cncnc1)c1ccccc1Cl (centres unmarked) [FENARIMOL, reference compound]	40%
CON=C(C(=O)OC)c1ccccc1CON=C(C)c1cccc(OC(F)=C(c2ccc(Cl)cc2)C(F)(F)F)c1 [Compound 185]	25%
CON=C(C(=O)OC)c1ccccc1CON=C(C)c1cccc(OC(F)=C(c2ccc(OC)cc2)C(F)(F)F)c1 [Compound 181]	35%

Same assay, conditions: 10 ppm

Compound	Fungicidal Activities RSB (C.V.)
OC(c1ccc(Cl)cc1)(c1cncnc1)c1ccccc1Cl (centres unmarked) [FENARIMOL, reference compound]	85%

Same assay, conditions: 50 ppm

Compound	Fungicidal Activities RSB (C.V.)
CON=C(C(=O)OC)c1ccccc1CON=C(C)c1cccc(OC(F)=C(c2ccc(Cl)cc2)C(F)(F)F)c1 [Compound 185]	75%
CON=C(C(=O)OC)c1ccccc1CON=C(C)c1cccc(OC(F)=C(c2ccc(OC)cc2)C(F)(F)F)c1 [Compound 181]	45%
COC=C(C(=O)OC)c1ccccc1CON=C(C)c1cccc(OC(F)=C(c2ccc(Br)cc2)C(F)(F)F)c1 [Compound 165]	45%

Test system: Puccinia recondita
Assay: Fungicidal activity against Wheat Leaf Rust (WLR) disease
Assay type: in vivo
Details: 0.08 ppm

Compound	Fungicidal Activities WLR (C.V.)
OC(c1ccc(Cl)cc1)(c1cncnc1)c1ccccc1Cl (centres unmarked) [FENARIMOL, reference compound]	15%

Same assay, conditions: 0.40 ppm

Compound	Fungicidal Activities WLR (C.V.)
OC(c1ccc(Cl)cc1)(c1cncnc1)c1ccccc1Cl (centres unmarked) [FENARIMOL, reference compound]	15%

Same assay, conditions: 2 ppm

Compound	Fungicidal Activities WLR (C.V.)
OC(c1ccc(Cl)cc1)(c1cncnc1)c1ccccc1Cl (centres unmarked) [FENARIMOL, reference compound]	80%
CON=C(C(=O)OC)c1ccccc1CON=C(C)c1cccc(OC(F)=C(c2ccc(Cl)cc2)C(F)(F)F)c1 [Compound 185]	95%
CON=C(C(=O)OC)c1ccccc1CON=C(C)c1cccc(OC(F)=C(c2ccc(OC)cc2)C(F)(F)F)c1 [Compound 181]	83%
COC=C(C(=O)OC)c1ccccc1CON=C(C)c1cccc(OC(F)=C(c2ccc(Br)cc2)C(F)(F)F)c1 [Compound 165]	86%

Same assay, conditions: 10 ppm

Compound	Fungicidal Activities WLR (C.V.)
OC(c1ccc(Cl)cc1)(c1cncnc1)c1ccccc1Cl (centres unmarked) [FENARIMOL, reference compound]	100%
COC=C(C(=O)OC)c1ccccc1CON=C(C)c1cccc(OC(F)=C(c2ccc(Br)cc2)C(F)(F)F)c1 [Compound 165]	96%

Same assay, conditions: 50 ppm

Compound	Fungicidal Activities WLR (C.V.)
CON=C(C(=O)OC)c1ccccc1CON=C(C)c1cccc(OC(F)=C(c2ccc(Cl)cc2)C(F)(F)F)c1 [Compound 185]	100%
CON=C(C(=O)OC)c1ccccc1CON=C(C)c1cccc(OC(F)=C(c2ccc(OC)cc2)C(F)(F)F)c1 [Compound 181]	99%
COC=C(C(=O)OC)c1ccccc1CON=C(C)c1cccc(OC(F)=C(c2ccc(Br)cc2)C(F)(F)F)c1 [Compound 165]	100%

Test system: Pyricularia oryzae Carvara KA301
Assay: not given
Assay type: in vivo
Details: 0.08 ppm

Compound	Fungicidal Activities RCV (C.V.)
OC(c1ccc(Cl)cc1)(c1cncnc1)c1ccccc1Cl (centres unmarked) [FENARIMOL, reference compound]	0%

Same assay, conditions: 0.40 ppm

Compound	Fungicidal Activities RCV (C.V.)
OC(c1ccc(Cl)cc1)(c1cncnc1)c1ccccc1Cl (centres unmarked) [FENARIMOL, reference compound]	0%

Same assay, conditions: 2 ppm

Compound	Fungicidal Activities RCV (C.V.)
OC(c1ccc(Cl)cc1)(c1cncnc1)c1ccccc1Cl (centres unmarked) [FENARIMOL, reference compound]	0%
CON=C(C(=O)OC)c1ccccc1CON=C(C)c1cccc(OC(F)=C(c2ccc(Cl)cc2)C(F)(F)F)c1 [Compound 185]	73%
CON=C(C(=O)OC)c1ccccc1CON=C(C)c1cccc(OC(F)=C(c2ccc(OC)cc2)C(F)(F)F)c1 [Compound 181]	98%

Same assay, conditions: 10 ppm

Compound	Fungicidal Activities RCV (C.V.)
OC(c1ccc(Cl)cc1)(c1cncnc1)c1ccccc1Cl (centres unmarked) [FENARIMOL, reference compound]	0%

Same assay, conditions: 50 ppm

Compound	Fungicidal Activities RCV (C.V.)
CON=C(C(=O)OC)c1ccccc1CON=C(C)c1cccc(OC(F)=C(c2ccc(Cl)cc2)C(F)(F)F)c1 [Compound 185]	96%
CON=C(C(=O)OC)c1ccccc1CON=C(C)c1cccc(OC(F)=C(c2ccc(OC)cc2)C(F)(F)F)c1 [Compound 181]	95%
COC=C(C(=O)OC)c1ccccc1CON=C(C)c1cccc(OC(F)=C(c2ccc(Br)cc2)C(F)(F)F)c1 [Compound 165]	80%

Test system: Erysiphae graminis
Assay: Fungicidal activity against Barley Powdery Mildew (BPM) disease
Assay type: in vivo
Details: 0.08 ppm

Compound	Fungicidal Activities BPM (C.V.)
OC(c1ccc(Cl)cc1)(c1cncnc1)c1ccccc1Cl (centres unmarked) [FENARIMOL, reference compound]	50%

Same assay, conditions: 0.40 ppm

Compound	Fungicidal Activities BPM (C.V.)
OC(c1ccc(Cl)cc1)(c1cncnc1)c1ccccc1Cl (centres unmarked) [FENARIMOL, reference compound]	95%

Same assay, conditions: 2 ppm

Compound	Fungicidal Activities BPM (C.V.)
OC(c1ccc(Cl)cc1)(c1cncnc1)c1ccccc1Cl (centres unmarked) [FENARIMOL, reference compound]	100%
CON=C(C(=O)OC)c1ccccc1CON=C(C)c1cccc(OC(F)=C(c2ccc(Cl)cc2)C(F)(F)F)c1 [Compound 185]	98%
CON=C(C(=O)OC)c1ccccc1CON=C(C)c1cccc(OC(F)=C(c2ccc(OC)cc2)C(F)(F)F)c1 [Compound 181]	83%
COC=C(C(=O)OC)c1ccccc1CON=C(C)c1cccc(OC(F)=C(c2ccc(Br)cc2)C(F)(F)F)c1 [Compound 165]	71%

Same assay, conditions: 10 ppm

Compound	Fungicidal Activities BPM (C.V.)
OC(c1ccc(Cl)cc1)(c1cncnc1)c1ccccc1Cl (centres unmarked) [FENARIMOL, reference compound]	100%
COC=C(C(=O)OC)c1ccccc1CON=C(C)c1cccc(OC(F)=C(c2ccc(Br)cc2)C(F)(F)F)c1 [Compound 165]	99%

Same assay, conditions: 50 ppm

Compound	Fungicidal Activities BPM (C.V.)
CON=C(C(=O)OC)c1ccccc1CON=C(C)c1cccc(OC(F)=C(c2ccc(Cl)cc2)C(F)(F)F)c1 [Compound 185]	100%
CON=C(C(=O)OC)c1ccccc1CON=C(C)c1cccc(OC(F)=C(c2ccc(OC)cc2)C(F)(F)F)c1 [Compound 181]	100%
COC=C(C(=O)OC)c1ccccc1CON=C(C)c1cccc(OC(F)=C(c2ccc(Br)cc2)C(F)(F)F)c1 [Compound 165]	100%

Test system: Phytophthora infestans
Assay: not given
Assay type: in vivo
Details: 0.08 ppm

Compound	Fungicidal Activities TLB (C.V.)
OC(c1ccc(Cl)cc1)(c1cncnc1)c1ccccc1Cl (centres unmarked) [FENARIMOL, reference compound]	0%

Same assay, conditions: 0.40 ppm

Compound	Fungicidal Activities TLB (C.V.)
OC(c1ccc(Cl)cc1)(c1cncnc1)c1ccccc1Cl (centres unmarked) [FENARIMOL, reference compound]	60%

Same assay, conditions: 2 ppm

Compound	Fungicidal Activities TLB (C.V.)
OC(c1ccc(Cl)cc1)(c1cncnc1)c1ccccc1Cl (centres unmarked) [FENARIMOL, reference compound]	75%
CON=C(C(=O)OC)c1ccccc1CON=C(C)c1cccc(OC(F)=C(c2ccc(Cl)cc2)C(F)(F)F)c1 [Compound 185]	25%
CON=C(C(=O)OC)c1ccccc1CON=C(C)c1cccc(OC(F)=C(c2ccc(OC)cc2)C(F)(F)F)c1 [Compound 181]	68%

Same assay, conditions: 10 ppm

Compound	Fungicidal Activities TLB (C.V.)
OC(c1ccc(Cl)cc1)(c1cncnc1)c1ccccc1Cl (centres unmarked) [FENARIMOL, reference compound]	80%

Same assay, conditions: 50 ppm

Compound	Fungicidal Activities TLB (C.V.)
CON=C(C(=O)OC)c1ccccc1CON=C(C)c1cccc(OC(F)=C(c2ccc(Cl)cc2)C(F)(F)F)c1 [Compound 185]	50%
CON=C(C(=O)OC)c1ccccc1CON=C(C)c1cccc(OC(F)=C(c2ccc(OC)cc2)C(F)(F)F)c1 [Compound 181]	30%
COC=C(C(=O)OC)c1ccccc1CON=C(C)c1cccc(OC(F)=C(c2ccc(Br)cc2)C(F)(F)F)c1 [Compound 165]	6%

From patent US6552080B1, “Fungicidal compounds having a fluorovinyl-or fluoropropenyl-oxyphenyloxime moiety and process for the preparation thereof” (Korea Research Institute of Chemical Technology, priority 1999, dated 2003)
